The values below come from US11976075B2, “Inhibitors of the MYST family of lysine acetyl transferases” (Isosterix, Inc., priority 2022, dated 2024).

T1 sequence (Q92794 488-778): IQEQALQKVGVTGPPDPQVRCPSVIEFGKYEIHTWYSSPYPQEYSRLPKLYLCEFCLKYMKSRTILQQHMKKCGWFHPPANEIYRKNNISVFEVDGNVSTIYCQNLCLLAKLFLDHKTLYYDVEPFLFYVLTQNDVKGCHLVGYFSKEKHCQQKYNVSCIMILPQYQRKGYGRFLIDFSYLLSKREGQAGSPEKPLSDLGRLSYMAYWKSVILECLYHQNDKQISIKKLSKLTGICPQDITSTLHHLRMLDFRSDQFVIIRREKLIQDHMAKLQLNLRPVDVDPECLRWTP

The first test has as its target T1, Recombinant KAT6A/MOZ (488-778) protein (Homo sapiens, UniProt Q92794).
T1 construct: Recombinant KAT6A/MOZ (488-778) protein (Active motif, Catalog #81223); purchased Active Motif 81223
The test is described as follows: Kat6a AlphaLISA Inhibition Screening Assay. Format: biochemical. Particulars: 10′ pre-incubation; Table 2; read-out: Kat6A biochemical assay: IC50. The method, then: The Kat6a inhibitory activity of test compounds was determined using an Alpha Screen-based detection method. The assay reactions were conducted in a volume of 10 μL in Alpha Plate, White 384 well plate (cat #6008280, Perkin Elmer). The enzymatic reactions were performed in assay buffer pH 8.0 (50 mM Tris-HCl, 0.1 mM EDTA, 0.01% Tween-20, 1 mM Dithiothreitol, 0.1% BSA (fatty acid free) and 330 nM TSA (Trichostatin A)). 10 μL reaction volume consisting of 25 nM of Recombinant KAT6A/MOZ (488-778) protein (Active motif, Catalog #81223), 400 nM Acetyl coenzyme A (Catalog #A2056, Sigma), 200 nM of Histone H3 peptide [(amino acids 1-21), biotin-labeled (BPS Biosciences, Catalog #52011,)] and a 10-point dose response curve for test/tool compounds were prepared. Enzyme and compounds solution were pre-incubated in assay plate for 60 or 10 min at room temperature then substrate and Acetyl coenzyme A solution were added to the plate. After addition, the plate was sealed with adhesive seals and incubated for 120 minutes at room temperature.
After 120 minutes of incubation, 5 μL (10 μg/mL) of AlphaLISA anti-acetyl-Lysine acceptor beads (Perkin Elmer, Catalog #AL143C) were added to the plate and it was incubated for 60 minutes at room temperature. Then 10 μL (10 μg/mL) of Alpha Streptavidin donor beads (Perkin Elmer, Catalog #6760002S) were added to the plate which was further incubated for 60 minutes at room temperature. After incubation, the alpha signal was recorded by using Perkin Elmer Envision multi-mode reader.
NA means the compound was not active at the concentration tested. […] NT means not tested.
In general terms: Alpha assays give light when donor and acceptor beads are brought close together.
By IC50 is commonly meant the point on the concentration scale where inhibition reaches its midpoint. On to `C#CC(=O)NCc1ccn(Cc2cc(OC)c3c(NS(=O)(=O)CC4CCCCC4)noc3c2)n1` [Synthetic Example 8, N-((1-((3-((cyclohexylmethyl)sulfonamido)-4-methoxybenzo[d]isoxazol-6-yl)methyl)-1H-pyrazol-3-yl)methyl)propiolamide], for which the IC50 was at most 10 µM.
Turning to `CCC(=O)NCc1ccn(Cc2cc(OC)c3c(NS(=O)(=O)CC4CCCCC4)noc3c2)n1` [Synthetic Example 9, N-((1-((3-((cyclohexylmethyl)sulfonamido)-4-methoxybenzo[d]isoxazol-6-yl)methyl)-1H-pyrazol-3-yl)methyl)propionamide], the IC50 is at most 10 µM.
Turning to `C=CC(=O)NCc1ccc2cc(C(=O)NS(=O)(=O)c3ccccc3F)oc2c1` [Synthetic Example 10, 6-(acrylamidomethyl)-N-((2-fluorophenyl)sulfonyl)benzofuran-2-carboxamide], the IC50 was at most 10 µM.
On to `C#CC(=O)NCc1ccc2cc(C(=O)NS(=O)(=O)c3ccccc3F)oc2c1` [Synthetic Example 11, N-((2-fluorophenyl)sulfonyl)-6-(propiolamidomethyl)benzofuran-2-carboxamide], for which the IC50 was in the range of 20 to 50 µM.
Still for that read-out and setting: in the case of `C=CC(=O)N1CCC(C(=O)NCc2ccc3cc(C(=O)NS(=O)(=O)c4ccccc4F)oc3c2)CC1` [Synthetic Example 14, 1-acryloyl-N-((2-(((2-fluorophenyl)sulfonyl)carbamoyl)benzofuran-6-yl)methyl)piperidine-4-carboxamide] it was 20 to 50 µM.
On to `C=CC(=O)NCC(=O)NCc1ccc2cc(C(=O)NS(=O)(=O)c3ccccc3F)oc2c1` [Synthetic Example 39, 6-((2-acrylamidoacetamido)methyl)-N-((2-fluorophenyl)sulfonyl)benzofuran-2-carboxamide], for which the IC50 was in the range of 20 to 50 µM.
Same read-out and setting: in the case of `C=CC(=O)N1CCC(C(=O)NCc2ccc3cc(C(=O)NS(=O)(=O)c4ccccc4F)oc3c2)C1` (centres unmarked) [Synthetic Example 40, 1-acryloyl-N-((2-(((2-fluorophenyl)sulfonyl)carbamoyl)benzofuran-6-yl)methyl)pyrrolidine-3-carboxamide] it was above 100 µM.

Staying with this test, now noted: 60′ pre-incubation; Table 2; read-out: Kat6A biochemical assay: IC50.
Take `COc1cc(Cn2cc3c(n2)CN(C(=O)C#CCN(C)C)C3)cc2onc(NS(=O)(=O)CC3CCCCC3)c12` [Synthetic Example 3, 1-cyclohexyl-N-(6-((5-(4-(dimethylamino)but-2-ynoyl)-5,6-dihydropyrrolo[3,4-c]pyrazol-2(4H)-yl)methyl)-4-methoxybenzo[d]isoxazol-3-yl)methanesulfonamide]: the IC50 was at most 10 µM.
Still for that read-out and setting: the same measure for `C=CC(=O)NCc1cnn(Cc2cc(OC)c3c(NS(=O)(=O)CC4CCCCC4)noc3c2)c1` [Synthetic Example 4, N-((1-((3-((cyclohexylmethyl)sulfonamido)-4-methoxybenzo[d]isoxazol-6-yl)methyl)-1H-pyrazol-4-yl)methyl)acrylamide]: at most 10 µM; for `C=CC(=O)NCc1ccnc(-c2cc(C)cc(C(=O)NNS(=O)(=O)c3c(OC)cccc3OC)c2)c1` [Synthetic Example 15, N-((2-(3-(2-((2,6-dimethoxyphenyl)sulfonyl)hydrazine-1-carbonyl)-5-methylphenyl)pyridin-4-yl)methyl)acrylamide]: at most 10 µM; for `C#CC(=O)NCc1ccnc(-c2cc(C)cc(C(=O)NNS(=O)(=O)c3c(OC)cccc3OC)c2)c1` [Synthetic Example 16, N-((2-(3-(2-((2,6-dimethoxyphenyl)sulfonyl)hydrazine-1-carbonyl)-5-methylphenyl)pyridin-4-yl)methyl)propiolamide]: at most 10 µM.
Still for that read-out and setting: the same measure for `C=CS(=O)(=O)NCc1ccn(Cc2cc(OC)c3c(NS(=O)(=O)c4ccccc4F)noc3c2)n1` [Synthetic Example 17, 2-fluoro-N-(4-methoxy-6-((3-(vinylsulfonamidomethyl)-1H-pyrazol-1-yl)methyl)benzo[d]isoxazol-3-yl)benzenesulfonamide]: at most 10 µM; for `C=CC(=O)NCc1ccn(Cc2cc(OC)c3c(NS(=O)(=O)c4ccccc4F)noc3c2)n1` [Synthetic Example 18, N-((1-((3-((2-fluorophenyl)sulfonamido)-4-methoxybenzo[d]isoxazol-6-yl)methyl)-1H-pyrazol-3-yl)methyl)acrylamide]: at most 10 µM; for `C=CS(=O)(=O)NCc1ccn(Cc2cc(OC)c3c(NS(=O)(=O)c4c(OC)cccc4OC)noc3c2)n1` [Synthetic Example 19, 2,6-dimethoxy-N-(4-methoxy-6-((3-(vinylsulfonamidomethyl)-1H-pyrazol-1-yl)methyl)benzo[d]isoxazol-3-yl)benzenesulfonamide]: at most 10 µM.
Still for that read-out and setting: the same measure for `C=CS(=O)(=O)NCc1ccn(Cc2cc(OC)c3c(NS(=O)(=O)c4ccccc4OC)noc3c2)n1` [Synthetic Example 22, 2-methoxy-N-(4-methoxy-6-((3-(vinylsulfonamidomethyl)-1H-pyrazol-1-yl)methyl)benzo[d]isoxazol-3-yl)benzenesulfonamide]: at most 10 µM.
With `C=C(F)C(=O)NCc1ccn(Cc2cc(OC)c3c(NS(=O)(=O)CC4CCCCC4)noc3c2)n1` [Synthetic Example 23, N-((1-((3-((cyclohexylmethyl)sulfonamido)-4-methoxybenzo[d]isoxazol-6-yl)methyl)-1H-pyrazol-3-yl)methyl)-2-fluoroacrylamide], the IC50 was at most 10 µM.
Still for that read-out and setting: in the case of `C=CS(=O)(=O)NCc1ccn(Cc2cc(OC)c3c(NS(=O)(=O)CC4CCCCC4)noc3c2)n1` [Synthetic Example 24, N-((1-((3-((cyclohexylmethyl)sulfonamido)-4-methoxybenzo[d]isoxazol-6-yl)methyl)-1H-pyrazol-3-yl)methyl)ethenesulfonamide] it was at most 10 µM; in that of `C=CS(=O)(=O)N1Cc2cnn(Cc3cc(OC)c4c(NS(=O)(=O)c5ccccc5OC)noc4c3)c2C1` [Synthetic Example 27A, 2-methoxy-N-(4-methoxy-6-((5-(vinylsulfonyl)-5,6-dihydropyrrolo[3,4-c]pyrazol-1(4H)-yl)methyl)benzo[d]isoxazol-3-yl)benzenesulfonamide], at most 10 µM.
On the same count and under the same terms, in the case of `COc1cc(Cn2ncc3c2CNC3)cc2onc(NS(=O)(=O)CC3CCCCC3)c12` [Synthetic Example 28A, 1-cyclohexyl-N-(6-((5,6-dihydropyrrolo[3,4-c]pyrazol-1(4H)-yl)methyl)-4-methoxybenzo[d]isoxazol-3-yl)methanesulfonamide] it was at most 10 µM; in that of `COc1cc(Cn2cc3c(n2)CNC3)cc2onc(NS(=O)(=O)CC3CCCCC3)c12` [Synthetic Example 28B, 1-cyclohexyl-N-(6-((5,6-dihydropyrrolo[3,4-c]pyrazol-2(4H)-yl)methyl)-4-methoxybenzo[d]isoxazol-3-yl)methanesulfonamide], 10 to 20 µM; in that of `C=CC(=O)N1Cc2cnn(Cc3cc(OC)c4c(NS(=O)(=O)CC5CCCCC5)noc4c3)c2C1` [Synthetic Example 29A, N-(6-((5-acryloyl-5,6-dihydropyrrolo[3,4-c]pyrazol-1(4H)-yl)methyl)-4-methoxybenzo[d]isoxazol-3-yl)-1-cyclohexylmethanesulfonamide], at most 10 µM.
As to `C#CC(=O)NCc1cnn(Cc2cc(OC)c3c(NS(=O)(=O)c4c(OC)cccc4OC)noc3c2)c1` [Synthetic Example 34, N-((1-((3-((2,6-dimethoxyphenyl)sulfonamido)-4-methoxybenzo[d]isoxazol-6-yl)methyl)-1H-pyrazol-4-yl)methyl)propiolamide], the IC50 was at most 10 µM.
Same read-out and setting: in the case of `C#CC(=O)NCc1cnn(Cc2cc(OC)c3c(NS(=O)(=O)c4cccc(OC)c4)noc3c2)c1` [Synthetic Example 35, N-((1-((4-methoxy-3-((3-methoxyphenyl)sulfonamido)benzo[d]isoxazol-6-yl)methyl)-1H-pyrazol-4-yl)methyl)propiolamide] it was at most 10 µM.
`C#CC(=O)NCc1cnn(Cc2cc(OC)c3c(NS(=O)(=O)c4ccc(C(=O)OC)cc4)noc3c2)c1` [Synthetic Example 38, methyl 4-(N-(4-methoxy-6-((4-(propiolamidomethyl)-1H-pyrazol-1-yl)methyl)benzo[d]isoxazol-3-yl)sulfamoyl)benzoate]: the IC50 was at most 10 µM.

Staying with this test, now noted: 60′ pre-incubation; Table 3; read-out: Kat6A Biochemical assay: IC50.
Regarding `C#CC(=O)N1CCc2c(cnn2Cc2cc(OC)c3c(NS(=O)(=O)c4cc(CC)ccc4OC)noc3c2)C1` [105a, 5-ethyl-2-methoxy-N-(4-methoxy-6-((5-propioloyl-4,5,6,7-tetrahydro-1H-pyrazolo[4,3-c]pyridin-1-yl)methyl)benzo[d]isoxazol-3-yl)benzenesulfonamide], the half-inhibitory concentration (IC50) is at most 10 µM.
The same measure, in the same setting: the same measure for `C#CC(=O)N1CCc2nn(Cc3cc(OC)c4c(NS(=O)(=O)c5cc(CC)ccc5OC)noc4c3)cc2C1` [105b, 5-ethyl-2-methoxy-N-(4-methoxy-6-((5-propioloyl-4,5,6,7-tetrahydro-2H-pyrazolo[4,3-c]pyridin-2-yl)methyl)benzo[d]isoxazol-3-yl)benzenesulfonamide]: at most 10 µM.
